The source of these data is ChEMBL document CHEMBL1201862, “PubChem BioAssay data set” (2004).

Assay [1] in a line: inhibitors of HIV Env-driven cell fusion, dose response, cherry-pick (AID 652057). Type of assay: functional, cell-based.
Assay [2] is described as follows: ZM109 Env clade C HIV-1 fusion inhibitors, dose response, HeLa effector, CEM target cells, luciferase, cherry-pick (AID 652058). Type of assay: functional, cell-based.
A short description of assay [3]: off-target signal loss in HeLa-CEM21 co-culture – HeLa F-luc CTL cells, cherry-picked, counter-screen for HIV-1 Env fusion inhibitor project, dose response (AID 652040).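 Note: potency for signal decrease marking cytotoxic or nonspecific inhibition.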 Type of assay: functional, cell-based.
The nature of assay [4]: inhibitors of clade B AD8 Env fusion, dose response, cell-based, cherry-pick (AID 652062).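 Note: luciferase signal from cell-cell fusion driven by HIV-1 clade B AD8 Env; potency is for inhibitors of fusion seen as a drop in luminescence.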 Type of assay: functional.
Assay [5] in a line: Shn3 3'UTR reporter inhibitors, dose response, cell-based, Clone20 osteoblasts, firefly luciferase, cherry-picked (AID 624132).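 Note: firefly luciferase luminescence from reporter carrying the Shn3 3'UTR in osteoblasts.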 In kind it is functional.
Assay [6] in a line: HepG2 cell cytotoxicity, dose response, cytotoxicity control for Shn3 inhibitor project, CellTiter-Glo, cherry-picked (AID 624134). In kind it is functional, cell-based.
A short description of assay [7]: control 3'UTR Renilla luciferase suppression, dose response, counter-screen for Shn3 inhibitor project, cell-based, Clone20-Shn3RL, cherry-picked (AID 624133). In kind it is functional.
Assay [8] relates to Vero. Briefly: cells. Type of assay: functional. Particulars: Chlorocebus sabaeus.
Assay [9] concerns Streptococcus sp. 'group A'. Briefly: growth inhibition of control SK(-) GAS strain, dose response, counter-screen for streptokinase expression inhibitor project, luminescence, kanamycin, BacTiterGlo, confirmation (AID 1900). Type of assay: functional, organism-based.
Assay [10] addresses T1, Streptokinase A (Streptococcus pyogenes serotype M1, UniProt P10520).
T1 sequence (P10520 whole entry): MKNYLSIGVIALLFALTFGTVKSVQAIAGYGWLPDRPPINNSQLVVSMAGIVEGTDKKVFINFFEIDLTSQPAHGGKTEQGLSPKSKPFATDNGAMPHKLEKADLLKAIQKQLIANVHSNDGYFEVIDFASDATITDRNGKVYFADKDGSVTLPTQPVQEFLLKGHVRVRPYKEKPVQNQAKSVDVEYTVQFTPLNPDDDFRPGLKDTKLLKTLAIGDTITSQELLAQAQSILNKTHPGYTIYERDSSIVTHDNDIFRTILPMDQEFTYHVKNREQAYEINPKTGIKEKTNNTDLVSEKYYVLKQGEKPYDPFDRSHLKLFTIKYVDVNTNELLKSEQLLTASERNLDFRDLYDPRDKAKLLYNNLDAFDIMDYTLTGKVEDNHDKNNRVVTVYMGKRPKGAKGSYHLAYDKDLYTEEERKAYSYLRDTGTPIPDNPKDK
Briefly: S. pyogenes streptokinase expression inhibitors, potency, dose response, plasminogen activation absorbance, OD405 (AID 1914).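 Note: secreted streptokinase activity via plasminogen activation per viability signal from cell pellet.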 Type of assay: functional, Streptococcus pyogenes M1 GAS.

The subject of assay [11] is Streptococcus. The assay can be described thus: Group A Streptococcus viability loss, dose response, counter-screen for streptokinase expression inhibitor project, luminescence, BacTiterGlo (AID 1915).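 Note: potency for reduction of bacterial viability or growth.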 Type of assay: functional, organism-based.
Assay [12] has as its target T2, Cytochrome P450 1A2 (Homo sapiens, UniProt P05177).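 Note: PubChem cytochrome P450 panel assay, CYP1A2 panel member.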
T2 sequence (P05177 whole entry): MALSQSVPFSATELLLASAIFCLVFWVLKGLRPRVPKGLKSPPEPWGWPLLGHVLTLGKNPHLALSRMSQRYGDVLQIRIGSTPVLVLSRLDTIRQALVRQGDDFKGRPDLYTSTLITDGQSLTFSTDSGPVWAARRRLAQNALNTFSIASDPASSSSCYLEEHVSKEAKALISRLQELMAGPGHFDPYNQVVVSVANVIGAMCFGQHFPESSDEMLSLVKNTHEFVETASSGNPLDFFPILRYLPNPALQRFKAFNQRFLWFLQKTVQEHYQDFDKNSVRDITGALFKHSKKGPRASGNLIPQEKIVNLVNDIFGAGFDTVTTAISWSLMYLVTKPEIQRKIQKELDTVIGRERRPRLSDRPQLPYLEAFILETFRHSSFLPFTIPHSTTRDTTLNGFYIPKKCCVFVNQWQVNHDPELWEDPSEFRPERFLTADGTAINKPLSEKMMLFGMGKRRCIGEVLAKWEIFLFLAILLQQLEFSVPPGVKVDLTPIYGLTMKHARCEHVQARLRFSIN

Assay [13] addresses Cytochrome P450 2C9 (Homo sapiens, UniProt P11712).
Assay [14] has as its target T3, Short transient receptor potential channel 4 (Mus musculus, UniProt Q9QUQ5).
T3 sequence (Q9QUQ5 whole entry): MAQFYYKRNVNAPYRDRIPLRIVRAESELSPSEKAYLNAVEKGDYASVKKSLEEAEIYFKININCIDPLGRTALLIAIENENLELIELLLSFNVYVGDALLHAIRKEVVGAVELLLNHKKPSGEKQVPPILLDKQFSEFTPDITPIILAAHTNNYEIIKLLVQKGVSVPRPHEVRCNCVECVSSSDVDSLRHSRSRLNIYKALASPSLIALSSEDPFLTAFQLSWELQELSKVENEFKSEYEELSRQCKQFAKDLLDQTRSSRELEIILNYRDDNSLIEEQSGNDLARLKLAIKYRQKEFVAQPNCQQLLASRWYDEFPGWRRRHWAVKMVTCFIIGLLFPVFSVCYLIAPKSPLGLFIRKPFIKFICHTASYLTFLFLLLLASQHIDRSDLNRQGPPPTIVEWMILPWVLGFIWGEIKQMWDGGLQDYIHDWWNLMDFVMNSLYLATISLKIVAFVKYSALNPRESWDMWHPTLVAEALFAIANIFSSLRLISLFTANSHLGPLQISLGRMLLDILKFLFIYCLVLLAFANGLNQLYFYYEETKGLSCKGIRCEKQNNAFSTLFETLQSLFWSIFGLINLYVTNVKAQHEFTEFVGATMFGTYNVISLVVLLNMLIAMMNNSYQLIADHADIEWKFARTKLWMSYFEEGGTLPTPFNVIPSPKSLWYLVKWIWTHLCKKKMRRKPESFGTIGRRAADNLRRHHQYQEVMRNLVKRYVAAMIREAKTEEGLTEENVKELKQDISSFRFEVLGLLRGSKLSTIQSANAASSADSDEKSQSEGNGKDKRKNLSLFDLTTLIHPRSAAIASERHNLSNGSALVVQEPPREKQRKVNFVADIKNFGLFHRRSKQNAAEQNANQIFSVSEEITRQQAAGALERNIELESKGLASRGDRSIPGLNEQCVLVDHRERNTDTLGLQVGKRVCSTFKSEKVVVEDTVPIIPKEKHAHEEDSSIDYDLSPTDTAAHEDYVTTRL
Briefly: mouse TRPC4 channel activators, dose response, cell-based, HEK293 TRPC4/mu-opioid, Fluo-4 calcium (AID 434937). Type of assay: functional.

Assay [15] addresses Fatty acid synthase (Homo sapiens, UniProt P49327). The assay can be described thus: FAS thioesterase domain inhibitors, dose response, biochemical, kinetic fluorescence intensity (AID 624326).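 Note: rate of fluorescence rise from hydrolysis of a fluorogenic O-methyl fluorescein ester substrate.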 In kind it is functional.
In assay [16] the target is T4, Carboxy-terminal domain RNA polymerase II polypeptide A small phosphatase 1 (Homo sapiens, UniProt Q9GZU7).
T4 sequence (Q9GZU7 whole entry): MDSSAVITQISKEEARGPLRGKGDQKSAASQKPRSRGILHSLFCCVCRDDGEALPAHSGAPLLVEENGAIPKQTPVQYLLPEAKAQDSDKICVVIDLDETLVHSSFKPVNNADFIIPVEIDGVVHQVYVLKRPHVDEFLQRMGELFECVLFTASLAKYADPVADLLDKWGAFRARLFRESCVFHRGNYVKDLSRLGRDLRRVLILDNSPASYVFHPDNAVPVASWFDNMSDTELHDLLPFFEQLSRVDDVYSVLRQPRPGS
Briefly: inhibitors of CTDSP1, concentration-response testing, biochemical assay, absorbance-based, actives from ultra-high-throughput screening (AID 540297). Type of assay: functional.

Assay [17] can be described thus: HEp-2 cell cytotoxicity, dose response, cytotoxicity control for RSV inhibitor project, HTS (AID 2410). Type of assay: functional. The conditions noted are these: human respiratory syncytial virus.
For assay [18], the target named is Nonstructural protein 1 (Influenza A virus, UniProt Q194T2). In kind it is functional, Influenza A virus (A/California/07/2009(H1N1)).
Assay [19] has as its target Heat shock protein HSP 90-alpha (Homo sapiens, UniProt P07900). In kind it is functional, organism-based.
Assay [20] relates to P388/ADR. Briefly: cells. Type of assay: functional. The conditions noted are these: Mus musculus.
For assay [21], the system named is SN12K1. Briefly: cells. Type of assay: functional. Particulars: Homo sapiens.
The target in assay [22] is FAD-linked sulfhydryl oxidase ALR (Homo sapiens, UniProt P55789). The assay can be described thus: inhibitors of human ALR sulfhydryl oxidase, dose response, biochemical, H2O2 detection, luminescence, cherry-pick (AID 493248).

Structures are written as SMILES. Calls of active or inactive are those of the source. Some results are limits rather than exact numbers.

Sequence of Nonstructural protein 1 (Q194T2 whole entry): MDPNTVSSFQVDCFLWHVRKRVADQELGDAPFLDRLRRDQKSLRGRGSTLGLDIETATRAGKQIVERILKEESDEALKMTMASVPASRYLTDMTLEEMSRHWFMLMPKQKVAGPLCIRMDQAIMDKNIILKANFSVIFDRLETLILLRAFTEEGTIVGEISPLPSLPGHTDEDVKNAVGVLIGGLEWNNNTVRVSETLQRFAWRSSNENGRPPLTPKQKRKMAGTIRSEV
Sequence of Cytochrome P450 2C9 (P11712 whole entry): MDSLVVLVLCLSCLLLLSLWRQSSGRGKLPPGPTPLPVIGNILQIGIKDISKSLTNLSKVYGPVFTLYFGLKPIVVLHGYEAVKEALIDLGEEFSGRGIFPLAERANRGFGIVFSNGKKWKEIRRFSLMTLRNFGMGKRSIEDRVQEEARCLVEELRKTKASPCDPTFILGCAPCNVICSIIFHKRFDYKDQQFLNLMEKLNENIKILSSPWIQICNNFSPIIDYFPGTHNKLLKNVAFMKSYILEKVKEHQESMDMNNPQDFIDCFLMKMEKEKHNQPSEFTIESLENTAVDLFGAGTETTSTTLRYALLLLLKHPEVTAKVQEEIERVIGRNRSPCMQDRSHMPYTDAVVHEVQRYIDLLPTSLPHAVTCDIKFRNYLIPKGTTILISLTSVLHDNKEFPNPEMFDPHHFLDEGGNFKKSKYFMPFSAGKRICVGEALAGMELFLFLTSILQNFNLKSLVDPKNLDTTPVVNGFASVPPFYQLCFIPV
Sequence of Fatty acid synthase (P49327 whole entry, the tested form may be a part): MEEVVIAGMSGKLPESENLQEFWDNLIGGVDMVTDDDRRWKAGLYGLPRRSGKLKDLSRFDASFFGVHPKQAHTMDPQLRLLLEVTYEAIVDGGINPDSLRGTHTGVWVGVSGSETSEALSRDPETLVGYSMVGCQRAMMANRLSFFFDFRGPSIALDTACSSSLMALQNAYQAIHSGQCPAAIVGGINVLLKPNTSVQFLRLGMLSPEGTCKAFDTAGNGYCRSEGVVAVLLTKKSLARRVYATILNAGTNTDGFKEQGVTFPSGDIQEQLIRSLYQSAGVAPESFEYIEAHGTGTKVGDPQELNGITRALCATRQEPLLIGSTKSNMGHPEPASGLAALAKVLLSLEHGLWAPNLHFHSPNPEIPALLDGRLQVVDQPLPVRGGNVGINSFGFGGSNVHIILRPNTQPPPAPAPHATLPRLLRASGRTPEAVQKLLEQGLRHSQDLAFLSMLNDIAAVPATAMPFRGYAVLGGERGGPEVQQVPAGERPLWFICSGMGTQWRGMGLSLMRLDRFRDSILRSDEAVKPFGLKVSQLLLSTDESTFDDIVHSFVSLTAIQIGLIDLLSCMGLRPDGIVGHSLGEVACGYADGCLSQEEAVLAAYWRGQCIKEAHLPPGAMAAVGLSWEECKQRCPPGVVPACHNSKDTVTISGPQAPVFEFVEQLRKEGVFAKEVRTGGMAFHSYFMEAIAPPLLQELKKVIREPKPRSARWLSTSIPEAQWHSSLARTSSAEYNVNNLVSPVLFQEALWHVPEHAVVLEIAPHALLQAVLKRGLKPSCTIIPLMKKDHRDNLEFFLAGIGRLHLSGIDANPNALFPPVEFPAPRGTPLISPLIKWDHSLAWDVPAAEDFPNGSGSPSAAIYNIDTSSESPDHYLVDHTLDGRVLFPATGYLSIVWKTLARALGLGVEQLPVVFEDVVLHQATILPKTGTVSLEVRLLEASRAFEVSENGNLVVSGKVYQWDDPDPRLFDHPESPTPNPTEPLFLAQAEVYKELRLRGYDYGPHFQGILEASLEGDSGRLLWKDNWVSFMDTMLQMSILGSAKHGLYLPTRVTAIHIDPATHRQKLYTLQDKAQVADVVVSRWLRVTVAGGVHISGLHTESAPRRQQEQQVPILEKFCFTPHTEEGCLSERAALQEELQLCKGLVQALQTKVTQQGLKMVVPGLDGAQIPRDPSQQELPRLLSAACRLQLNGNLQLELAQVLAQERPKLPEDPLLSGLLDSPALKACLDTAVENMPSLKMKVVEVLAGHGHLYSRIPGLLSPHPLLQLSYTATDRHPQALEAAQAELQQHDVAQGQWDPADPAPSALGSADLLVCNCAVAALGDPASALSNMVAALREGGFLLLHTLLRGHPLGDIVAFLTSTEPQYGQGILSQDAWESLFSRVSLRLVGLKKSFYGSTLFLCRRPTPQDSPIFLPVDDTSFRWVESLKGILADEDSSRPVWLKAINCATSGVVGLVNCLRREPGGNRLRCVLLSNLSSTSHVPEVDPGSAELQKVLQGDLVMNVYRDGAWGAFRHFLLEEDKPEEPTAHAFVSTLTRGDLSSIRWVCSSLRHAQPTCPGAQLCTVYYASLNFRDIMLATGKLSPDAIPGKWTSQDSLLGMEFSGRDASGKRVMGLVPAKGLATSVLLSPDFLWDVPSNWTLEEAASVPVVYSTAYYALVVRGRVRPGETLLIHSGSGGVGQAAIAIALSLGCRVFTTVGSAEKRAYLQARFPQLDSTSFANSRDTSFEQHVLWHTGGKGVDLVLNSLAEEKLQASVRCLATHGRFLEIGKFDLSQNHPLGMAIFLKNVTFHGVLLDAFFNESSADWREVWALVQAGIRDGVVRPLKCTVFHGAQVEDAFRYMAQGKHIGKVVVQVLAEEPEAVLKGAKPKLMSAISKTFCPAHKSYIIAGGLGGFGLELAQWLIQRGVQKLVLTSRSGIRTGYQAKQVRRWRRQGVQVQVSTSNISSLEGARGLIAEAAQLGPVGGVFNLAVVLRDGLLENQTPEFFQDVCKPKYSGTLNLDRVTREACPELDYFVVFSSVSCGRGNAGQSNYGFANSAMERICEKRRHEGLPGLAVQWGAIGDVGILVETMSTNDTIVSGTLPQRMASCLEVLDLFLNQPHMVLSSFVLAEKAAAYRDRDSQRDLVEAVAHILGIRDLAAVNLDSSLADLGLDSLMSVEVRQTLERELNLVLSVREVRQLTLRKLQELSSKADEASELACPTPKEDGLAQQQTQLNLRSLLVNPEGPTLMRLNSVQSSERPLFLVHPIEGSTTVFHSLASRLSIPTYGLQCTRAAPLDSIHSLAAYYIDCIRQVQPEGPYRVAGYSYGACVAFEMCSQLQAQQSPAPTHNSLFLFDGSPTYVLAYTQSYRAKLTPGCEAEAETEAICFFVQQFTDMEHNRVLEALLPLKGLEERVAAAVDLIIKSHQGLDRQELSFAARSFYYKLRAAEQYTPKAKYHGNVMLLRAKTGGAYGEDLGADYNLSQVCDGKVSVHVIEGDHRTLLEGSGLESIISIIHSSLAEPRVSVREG
Sequence of FAD-linked sulfhydryl oxidase ALR (P55789 whole entry): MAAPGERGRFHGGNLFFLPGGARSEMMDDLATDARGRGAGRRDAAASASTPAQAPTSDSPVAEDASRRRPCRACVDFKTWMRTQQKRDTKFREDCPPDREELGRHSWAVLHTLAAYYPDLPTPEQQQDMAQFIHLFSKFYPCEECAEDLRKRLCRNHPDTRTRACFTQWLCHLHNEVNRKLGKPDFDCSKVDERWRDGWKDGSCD

With `CC[C@@]1(C(=O)OC)N[C@H](CN(C)C(=O)COc2ccccc2)[C@@H]2C(=O)N(Cc3ccccc3)C(=O)[C@@H]21`, the half-maximal activity concentration (AC50) in assay [1] is 2.2 µM (active); in assay [2], 1.53 µM (active); in assay [3] it was 4.2 µM (active); in assay [4] it was 3.82 µM (active).

`c1coc(CN(Cc2ccco2)c2ncnc3c2oc2ccccc23)c1`: the half-maximal activity concentration (AC50) in assay [5] was 5.45 µM (active); in assay [6], 67 µM (active); in [7], 3.94 µM (active).

For the compound `O=S(=O)(NCc1ccncc1)c1ccc(F)c(F)c1`, the AC50 in assay [5] is 2.09 µM (active); in assay [6], 54.7 µM (active); in [7], 1.2 µM (active).

For `Cc1ccc2oc(=O)c3cc(C(=O)NCCCN4CCCC(C)C4)sc3c2c1` (stereo not given), the CC50 in assay [8] is > 25 µM (active).

`CCCCCCc1nc2ccccc2c(=O)n1NC(=O)c1c(O)c2c(n(CC(C)C)c1=O)CCCC2`: the concentration for a half-maximal effect (EC50) in assay [9] is 84.9 µM (active); in assay [10] it was > 150 µM (not active); in assay [11], > 150 µM (not active). In addition, the half-maximal activity concentration (AC50) in assay [1] was 22.8 µM (active); in [2] it was 69.4 µM (active); in [3] it was 4.42 µM (active); in [12] it was 15.8 µM (inconclusive); in assay [13], 0.708 µM (inconclusive).

With `CCN1CCN(c2ccc(S(=O)(=O)N3CCOCC3)cc2NC(=O)c2ccccc2OC(F)F)CC1`, in assay [14], the EC50 was 0.299 µM (active).

Take `CCc1nc2c(OCc3ccc(C(F)(F)F)cc3)cccn2c1N(C=O)Cc1ccc(OC)cc1`: in assay [15], the 50% inhibitory concentration (IC50) is 9.21 µM (active).

`O=C(N/N=C/c1cc(Br)c(Br)o1)c1cc2ccccc2o1`: the IC50 in assay [16] was 5.65 µM (active).

`CCOC(=O)C1(Cc2cccc(F)c2)CCN(Cc2cnn(CC)c2)CC1`: in assay [14], the half-maximal effective concentration (EC50) was 0.668 µM (active).

Turning to `N#C/C(=C/c1ccc(OC(=O)c2ccc(Br)s2)cc1)c1nc2ccccc2[nH]1`, the half-maximal inhibitory concentration (IC50) in assay [16] was 1.82 µM (active).

For `O=C1C(NS(=O)(=O)c2cccs2)=C(N2CCN(c3cccc(C(F)(F)F)c3)CC2)C(=O)c2ccccc21`, the CC50 in assay [17] is 12.4 µM (active). Moreover, the EC50 in [9] is 7.31 µM (active); in [10], > 150 µM (not active); in assay [11] it was 13.5 µM (active). Also, in assay [18], the IC50 was 19.6 µM (active).

With `N#C/C(=C/C1=C(N2CCOCC2)C(=C/c2ccccc2)/CC1)C(=O)Nc1ccccc1F`, the 50% inhibitory concentration (IC50) in [18] was 3.83 µM (active).

`Cc1csc(NC(=O)CSc2sc3c(O)cc(O)nc3c2C#N)n1`: the 50% inhibitory concentration (IC50) in assay [16] is 5.14 µM (active).

On to `Cc1ccc(-n2cc(CNC(C)Cc3cnccn3)c(-c3cccc(C)c3)n2)cc1` (stereo not given), for which the concentration for a half-maximal effect (EC50) in assay [14] was 5.96 µM (active).

`COc1ccc(S(=O)(=O)N(C)C)cc1NC(=O)C1CCN(c2ncnc3sc(C)c(C)c23)CC1`: the AC50 in assay [5] is 9.21 µM (active); in assay [6] it was > 70 µM (inactive); in [7], 18.9 µM (active).

`COc1ccc(C(=O)O/N=C2\C(=O)N(C)c3ccccc32)cc1`: in assay [19], the AC50 is 1.1 µM (active).

Regarding `Oc1ccc(/C=C/c2ccc3cccc(O)c3n2)cc1Br`, the results for the EC50 in assay [9] and in assay [11] were 1.03 µM (active) and 2.72 µM (active), respectively. The AC50 in assay [19] is 1.35 µM (active).

In the case of `N#Cc1nc(-c2ccco2)oc1N1CCc2ccccc2C1`, the IC50 in assay [18] is > 100 µM (active).

For the compound `O=C(C1CCCN(Cc2ccncc2)C1)N1CCc2ccccc2C1` (stereo not given), the concentration giving a half-maximal response (EC50) in assay [14] is 0.188 µM (active).

For the compound `CC(=O)Oc1c(OC(C)=O)c(-c2ccc(O)c(O)c2)c(O)c(O)c1-c1ccc(O)cc1`, the GI50 in assay [20] is 20.7 µM (inactive); in [21], > 100 µM (inactive).

For `O=C(OCc1nnc(-c2ccccc2)o1)c1ccc(S(=O)(=O)NCc2ccco2)cc1`, the concentration for half-maximal inhibition (IC50) in assay [16] is 13.4 µM (active).

In the case of `COC(=O)/C=C/S(=O)(=O)c1ccc(NC(C)=O)cc1`, the AC50 is 0.118 µM (active) in assay [22], 7.3 µM (active) in assay [5], 42.2 µM (active) in assay [6] and 14.2 µM (active) in assay [7].

Regarding `C=CCNc1ncnc2ccc(Br)cc12`, the AC50 was 4.53 µM (active) in [1], 39.1 µM (active) in [2], 5.9 µM (active) in assay [3] and 6.46 µM (active) in [4].

Consider `O=c1c(Cc2ccccc2)c(O)ccn1CCc1c[nH]cn1`, for which the half-maximal effective concentration (EC50) in assay [14] is 3.76 µM (active).

Turning to `CC1CN(c2ccc([N+](=O)[O-])c3cccnc23)CC(C)N1` (stereo not given), the EC50 in assay [14] is 0.335 µM (active).

`Nc1nc(N)nc(-c2ccccn2)n1`: the IC50 in [18] is 19.9 µM (active).
